Source: PubChem BioAssay (NCI)
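Method: 48-hour compound exposure of cells in 96-well plates, five concentrations, linear interpolation of endpoints. Here, GI50 denotes the concentration required for 50% inhibition of growth. TGI is the concentration that stops growth completely.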

How the values were obtained:
Assay in all cases: DTP human tumour cell line panel, 48 h
[1] = tested on: ACHN renal
[2] = tested on: LOX IMVI melanoma
[3] = tested on: SNB-75 CNS
[4] = tested on: TK-10 renal
[5] = tested on: KM12 colon
[6] = tested on: SF-539 CNS
[7] = tested on: CCRF-CEM leukemia
[8] = tested on: EKVX NSCLC
[9] = tested on: T-47D breast
[10] = tested on: BT-549 breast

## O=C(NC1C2CC3CC(C2)CC1C3)c1cc(/C=C/c2ccccc2)[nH]c(=S)n1 (configuration not stated)
[1]
  TGI: > 100 µM
[2]
  TGI: > 100 µM
[3]
  TGI: > 100 µM
[4]
  TGI: > 100 µM
[5]
  TGI: > 100 µM
[6]
  TGI: > 100 µM
[7]
  TGI: > 100 µM
[8]
  TGI: > 100 µM

## COc1ccc(CNc2nc3cc(N)cc(N)c3nc2-c2ccccc2)cc1
[9]
  GI50: 2.8 µM
  TGI: 11 µM
[1]
  GI50: 14.9 µM
  TGI: 33.6 µM
[2]
  GI50: 13.6 µM
  TGI: 27.4 µM
[4]
  GI50: 28.1 µM
  TGI: 57.8 µM
[10]
  GI50: 6.52 µM
  TGI: 30.7 µM
[5]
  GI50: 13.3 µM
  TGI: 26.1 µM
[7]
  GI50: 3.36 µM
  TGI: 65.3 µM
[8]
  GI50: 14.9 µM
  TGI: 28.2 µM

## CCCCCCc1nc2nc(Cl)c(Cl)nc2[nH]1
[9]
  GI50: 2.68 µM
  TGI: > 100 µM
[1]
  GI50: 6.94 µM
  TGI: > 100 µM
[2]
  GI50: 6.24 µM
  TGI: > 100 µM
[4]
  GI50: 9.9 µM
  TGI: > 100 µM
[10]
  GI50: 22.5 µM
  TGI: > 100 µM
[5]
  GI50: 6.88 µM
  TGI: > 100 µM
[6]
  GI50: > 100 µM
  TGI: > 100 µM
[7]
  GI50: 5.8 µM
  TGI: > 100 µM

## CCCCN(CCCC)CCCn1c(=O)c2c3ccccc3n(C)c2n2nnc(-c3ccccc3)c12
[9]
  GI50: 54.6 µM
  TGI: > 100 µM
[1]
  GI50: 34.7 µM
  TGI: > 100 µM
[2]
  GI50: 28.4 µM
  TGI: > 100 µM
[3]
  GI50: 15.1 µM
  TGI: 56.2 µM
[4]
  GI50: 1.9 µM
  TGI: 22.4 µM
[5]
  GI50: 34.3 µM
  TGI: > 100 µM
[6]
  GI50: 65.3 µM
  TGI: > 100 µM
[7]
  GI50: 4.22 µM
  TGI: 92 µM
[8]
  GI50: 56.3 µM
  TGI: > 100 µM

## O=C1OC(c2ccccc2)(c2cc(Br)c(O)c(Br)c2)c2ccccc21 (configuration not stated)
[9]
  GI50: 26.8 µM
  TGI: > 100 µM
[1]
  GI50: 34.5 µM
  TGI: > 100 µM
[2]
  GI50: 16.3 µM
  TGI: 33 µM
[3]
  GI50: 20.3 µM
  TGI: 72 µM
[5]
  GI50: 21.9 µM
  TGI: 60.5 µM
[6]
  GI50: 26.6 µM
  TGI: 80.6 µM
[7]
  GI50: 38.3 µM
  TGI: > 100 µM
[8]
  GI50: 31.7 µM
  TGI: > 100 µM

## CCOC(=O)[C@@H](C)C[C@H](Cc1ccccc1)NC(=O)c1csc([C@@H](C[C@H](C(C)C)N(C)C(=O)[C@H](CC)NC(=O)[C@H]2CCCCN2C)OC(C)=O)n1
[1]
  GI50: 0.00196 µM
  TGI: > 16.7 µM
[2]
  GI50: 0.00842 µM
  TGI: > 16.7 µM
[3]
  GI50: < 0.00167 µM
  TGI: > 16.7 µM
[4]
  TGI: > 16.7 µM
[10]
  GI50: 0.00368 µM
  TGI: 0.143 µM
[5]
  GI50: < 0.00167 µM
  TGI: > 16.7 µM
[6]
  GI50: 0.00306 µM
  TGI: 0.0098 µM
[7]
  GI50: 0.00397 µM
  TGI: > 16.7 µM
[8]
  GI50: 0.00484 µM
  TGI: > 16.7 µM

## OCC1OC(n2cnc3c(Cl)nc(Cl)cc32)C(O)C1O (configuration not stated)
[9]
  GI50: > 100 µM
  TGI: > 100 µM
[1]
  GI50: > 100 µM
  TGI: > 100 µM
[4]
  GI50: > 100 µM
  TGI: > 100 µM
[10]
  GI50: > 100 µM
  TGI: > 100 µM
[5]
  GI50: > 100 µM
  TGI: > 100 µM
[6]
  GI50: > 100 µM
  TGI: > 100 µM
[7]
  GI50: > 100 µM
  TGI: > 100 µM
[8]
  GI50: > 100 µM
  TGI: > 100 µM
